Reference: patent publication US6335339B1, “Triazine antiviral compounds” (Scriptgen Pharmaceuticals, Inc., priority 1998, dated 2002)

Assays:
HIV derived RRE RNA = assay: heterologous hybridization inhibition assay with RRE RNA; type: binding; conditions: radiolabeled RRE RNA, rRNA competitor
HBV = assay: antiviral assay in 2.2.15 cells producing HBV (virion DNA dot blot); type: cell-based, Hepatitis B virus; conditions: extra-cellular virus reduced by 50%; 2.2.15 cells, 9 days treatment; read-out: Antiviral EC50
Text: Several cell lines and cell culture assays have been developed to identify potential therapeutics effective against chronic HBV infection. One of these cell lines, 2.2.15, has been used in a standardized assay that has repeatedly proven to be an accurate model of chronic cellular HBV replication and a predictive model of antiviral response for chronic hepadnaviral infection in vivo. 2.2.15 cells contain copies of the complete HBV genome integrated into the cell's genome, and 2.2.15 cells are not susceptible to infection by HBV. (Sells, M. A. et al., J. Virol. 62 (8): 2836-2844 (1988)). These cells express HBV genes producing complete HBV particles capable of infecting chimpanzees (Acs, G. et al., Proc. Natl. Acad. Sci. USA 84 (13): 4641-4644 (1987)). Briefly, 2.2.15 cells are cultured and pretreated with a test compound for about 9 days, at which point the media are harvested and subjected to dot-blot hybridization to detect HBV virion DNA.
The antiviral activity of the compounds of the present invention is measured by the methods described in Korba and Gering, Antiviral Res. 19: 55-70 (1992).
This assay format is well suited to the screening of test compounds for potential antiviral activity. The assay provides a threshold assessment of antiviral activity by measuring (i) the levels of HBV virion release from the cells and (ii) cytotoxicity. Two rows of cells were used for each compound, and 4 rows for the assay controls (two for untreated, and two for positive antiviral control, e.g., 3TC). After incubating in the presence of test compound for 9 days, the media were harvested, transferred to 96-well U-bottom plates, and centrifuged. The supernatants were transferred to tubes for dot blot hybridization analysis of HBV virion DNA. The medium was aspirated off of the toxicity plates and discarded. Toxicity plates were then incubated with neutral red dye (MTT can also be used if preferred), washed with DPBS, developed with an acetic acid-ethanol solution, and assayed in a plate reader.
1. 2.2.15 cells were seeded into 96-well, flat bottom tissue culture plates as described above. Duplicate plates were used for the antiviral treatments for each test compound (up to 8 compounds per pair of plates); after three to four days, cells were confluent and medium was yellow in color; the medium was removed and replaced with 100 μl RP2 24 hours before the beginning of drug treatment.
i) For each compound, a total of 4 concentrations were examined; this required 9 sets of 4 sterile, 1.1 ml minitubes (36 tubes per compound). Into the first tube of each set, sufficient compound was aliquoted to make up 700 μl (for 10-fold dilution series) or 980 μl (for 3.3-fold dilution series) of the highest test concentration; the other tubes were left empty.
i) For a 10-fold dilution series: to the first (compound containing) tube was added 700 μl (175 μl×4). 630 μl (210 μl×3) RP2 culture medium was added to the remaining 3 tubes. The first tube was mixed by pipeting up and down with a pipetman (a multichannel pipetman permits the simultaneous processing of multiple compounds). 70 μl of test compound-containing medium were serially transferred from the first tube to the other 3 tubes, taking care to thoroughly mix each tube before transferring medium;
b) 100 μl of each dilution of every compound was added to each of 6 wells (3 wells per plate) using the configuration listed below as an example. The lowest concentration was added first, and the same tips were used to add the higher concentrations. The untreated cells received 100 μl RP2 per well (untreated cells have to be carried on only one pair of the antiviral assay plates).
c) Treatments were repeated daily for 9 days. For the last day of treatment, and additional 200 μl RP2 were added to each well of the antiviral assay plates after the wells are treated with the test compounds (a total of 300 μl medium per well).
6. […]

Row | Compound | IC50 (HIV derived RRE RNA) [µM] | EC50 (HBV) [µM] | RRE + rRNA IC50 (μM) (HIV derived RRE RNA)
1 | C(=Cc1ccccc1)C=NNc1nc(Nc2ccccc2)nc(Nc2ccccc2)n1 [Compound 125] | 1000 | 3.9 | 
2 | CCCCN(CCCC)c1nc(NN=Cc2ccc(Cl)cc2)nc(Nc2ccc([N+](=O)[O-])cc2)n1 [Compound 16] |  | 15 | inactive
3 | CC(C=NNc1nc(Nc2ccc([N+](=O)[O-])cc2)nc(Nc2ccc(C)c(C)c2)n1)=Cc1ccccc1 [Compound 19] |  | > 100 | inactive
4 | Oc1c(Br)cc(Cl)cc1/C=N/Nc1nc(Nc2cccc(C(F)(F)F)c2)nc(N2CCOCC2)n1 [Compound 34] |  | 66 | inactive
5 | Cc1ccc(Nc2nc(NCc3ccccc3)nc(NN=Cc3cc(Br)cc(Br)c3O)n2)cc1C [Compound 219] |  | > 100 | inactive
6 | CCN(CC)c1nc(NN=Cc2ccc(Cl)c([N+](=O)[O-])c2)nc(Nc2cc(C)ccc2C)n1 [Compound 214] |  | > 100 | inactive
7 | Cc1ccc(Nc2nc(NN=Cc3ccc(I)cc3)nc(Nc3ccccc3)n2)c(C)c1 [Compound 113] | 300 | > 100 | 
8 | Oc1ccc(I)cc1C=NNc1nc(NCc2ccccc2)nc(Nc2ccccc2)n1 [Compound 33] |  | > 100 | inactive
9 | CCN(CC)c1nc(NN=Cc2c(O)ccc3ccccc23)nc(Nc2ccccc2)n1 [Compound 171] |  | 5 | inactive
10 | CC(=NNc1nc(NCc2ccccc2)nc(Nc2ccccc2)n1)c1ccc([N+](=O)[O-])cc1 [Compound 182] |  | 54 | inactive
11 | Cc1ccc(Nc2nc(NCc3cc(F)ccc3F)nc(Nc3ccc([N+](=O)[O-])cc3)n2)cc1C [Compound 248] |  | > 100 | inactive
12 | O=[N+]([O-])c1ccc(Nc2nc(NCc3ccccc3)nc(NN=Cc3ccccc3)n2)cc1 [Compound 24] |  | 18 | inactive
13 | CNc1nc(NN=Cc2cc(Cl)ccc2O)nc(Nc2ccccc2)n1 [Compound 245] |  | > 100 | inactive
14 | Oc1ccccc1C=NNc1nc(Nc2ccccc2)nc(N2CCCCC2)n1 [Compound 169] |  | 2.5 | inactive
15 | Cc1ccc(Nc2nc(NN=Cc3cccc([N+](=O)[O-])c3)nc(Nc3ccccc3)n2)c(C)c1 [Compound 229] |  | > 100 | inactive
16 | COc1ccc(Nc2nc(NCc3cccc([N+](=O)[O-])c3)nc(NCc3cc(F)ccc3F)n2)cc1OC [Compound 225] |  | > 100 | inactive
17 | COc1cccc(C=NNc2nc(Nc3ccccc3)nc(N3CCCC3)n2)c1O [Compound 170] | 740 | 4 | 
18 | COc1ccc(Nc2nc(NN=Cc3ccc(Cl)cc3)nc(Nc3ccccc3)n2)cc1 [Compound 22] |  | > 100 | inactive
19 | COc1ccc(Nc2nc(NN=Cc3ccc(O)cc3O)nc(Nc3ccccc3)n2)cc1 [Compound 158] |  | 42 | inactive
20 | COc1ccc(C=NNc2nc(NCc3ccccc3)nc(Nc3ccccc3)n2)cc1 [Compound 165] |  | 3.8 | inactive

Row | Compound | IC50 (HIV derived RRE RNA) [µM] | EC50 (HBV) [µM] | RRE + rRNA IC50 (μM) (HIV derived RRE RNA)
21 | COc1ccc(Nc2nc(NN=Cc3ccc(O)cc3O)nc(N3CCOCC3)n2)cc1 [Compound 164] |  | 0.863 | inactive
22 | Cc1ccc(Nc2nc(NN=Cc3ccccc3O)nc(Nc3ccc([N+](=O)[O-])cc3)n2)cc1C [Compound 12] |  | 0.759 | inactive
23 | C(=Cc1ccccc1)C=NNc1nc(Nc2ccccc2)nc(N2CCCC2)n1 [Compound 213] | 519 | > 100 | 
24 | O=[N+]([O-])c1ccc(Nc2nc(NN=Cc3ccc(Br)cc3)nc(N3CCCCCC3)n2)cc1 [Compound 117] |  | 4.2 | inactive
25 | Cc1ccccc1Nc1nc(NN=Cc2ccc(I)cc2)nc(Nc2ccc([N+](=O)[O-])cc2)n1 [Compound 10] |  | > 100 | inactive
26 | COc1c(C=NNc2nc(Nc3ccccc3)nc(Nc3ccccc3)n2)ccc(Br)c1O [Compound 168] |  | 0.7 | inactive
27 | Cc1ccc(Nc2nc(NNC(=O)c3ccccc3O)nc(Oc3ccc([N+](=O)[O-])cc3)n2)cc1C [Compound 250] |  | > 100 | inactive
28 | Oc1ccc(Br)cc1C=NNc1nc(Nc2cccc(Br)c2)nc(N2CCOCC2)n1 [Compound 232] |  | > 100 | inactive
29 | COc1ccc(Nc2nc(NN=Cc3ccc(OC)cc3OC)nc(Nc3ccccc3)n2)cc1 [Compound 20] |  | 4.1 | inactive
30 | Oc1ccc(Br)cc1C=NNc1nc(Nc2cccc(C(F)(F)F)c2)nc(N2CCOCC2)n1 [Compound 246] |  | 5.2 | inactive
31 | Ic1cccc(C=NNc2nc(Nc3ccc4ccccc4c3)nc(N3CCOCC3)n2)c1 [Compound 166] |  | 1.4 | inactive
32 | CCN(CC)c1nc(Nc2cccc(Br)c2)nc(Nc2cc(C)ccc2C)n1 [Compound 202] |  | > 100 | inactive
33 | COc1c(C=NNc2nc(NCc3ccccc3)nc(Nc3ccccc3)n2)cccc1[N+](=O)[O-] [Compound 162] |  | 0.923 | inactive
34 | FC(F)(F)c1cccc(Nc2nc(Nc3ccccc3)nc(N3CCOCC3)n2)c1 [Compound 21] |  | 5.6 | inactive
35 | CCN(CC)CCNc1ccc2c3c(cccc13)C(=O)N(Nc1nc(NCc3ccccc3)nc(N(CC)CC)n1)C2=O [Compound 27] |  | > 100 | inactive
36 | Oc1ccc(Cl)cc1C=NNc1nc(Nc2ccc3ccccc3c2)nc(N2CCOCC2)n1 [Compound 160] | 420 | 0.42 | 
37 | CC(=NNc1nc(Nc2ccccc2)nc(N2CCCC2)n1)c1ccc([N+](=O)[O-])cc1 [Compound 183] |  | 52 | inactive
38 | COc1ccc(Nc2nc(NCCc3ccccc3)nc(N(C)C)n2)cc1OC [Compound 252] |  | 9.5 | inactive
39 | Cc1ccc(Nc2nc(NN=Cc3ccc(O)cc3O)nc(Nc3ccc([N+](=O)[O-])cc3)n2)cc1C [Compound 9] |  | 0.474 | inactive
40 | COc1ccc(Br)cc1/C=N/Nc1nc(Nc2cccc([N+](=O)[O-])c2)nc(N2CCOCC2)n1 [Compound 28] |  | > 100 | inactive
